Laboratory results reported in US6281355A, “Nitrogen-containing tetracyclic compounds” (Taisho Pharmaceutical Co., Ltd., priority 1997, dated 2001).

Target: T1, mitochondrial diazepam binding inhibitor receptor (MDR) (Rattus norvegicus, UniProt P16257)
T1 construct: Crude mitochondria fractions prepared from rat cerebral cortex were used as a receptor sample; from tissue; host or cells: rat cerebral cortex, crude mitochondria fraction
Assay: MDR Receptor Binding Assay ([3H]PK11195 binding to crude mitochondria fraction of rat cerebral cortex)
Details: inhibition of [3H]PK11195 (2 nM) binding; rat cerebral cortex crude mitochondria 1.0 mg protein/ml; 4° C., 90 minutes; non-specific: 10 μM PK11195
Method: Experiment [MDR Receptor Binding Assay]
Crude mitochondria fractions prepared from rat cerebral cortex were used as a receptor sample, and [^3 H]PK11195 was used as a [^3 H]-labeled ligand.
A binding assay using the [^3 H]-labeled ligand was carried out according to the following method as described in Journal of Pharmacology and Experimental Therapeutics, 262, 971(1992).
Preparation of Receptor Sample: Rat cerebral cortex was homogenized using a Teflon-coated homogenizer in a 10 mM HEPES buffer (pH 7.4) containing 0.32 M sucrose in ten volumes of the wet weight. The homogenate was centrifuged at 900× g for 10 minutes, and the resulting supernatant was centrifuged at 9,000× g for 10 minutes. The precipitate was suspended in a HEPES buffer to give a protein concentration of 1 mg/ml, and centrifuged at 12,000× g for 10 minutes. The resulting precipitate was suspended in a 50 mM HEPES buffer (pH 7.4) to give a crude mitochondria fraction.
MDR Binding Assay: Mitochondria sample (1.0 mg protein/ml), [^3 H]PK11195 (2 nM) and the test drug were reacted at 4° C. for 90 minutes.
After completion of the reaction, the reaction mixture was filtered with suction through a glass filter (GF/B) treated with 0.3% polyethyleneimine,and the radioactivity on the filter was measured by a liquid scintillation spectrometer.
The binding at the reaction in the presence of 10 μM PK11195 was defined as non-specific binding of [^3 H]PK11195, and the difference between total binding and non-specific binding was defined as specific binding.

T1 sequence (P16257 whole entry): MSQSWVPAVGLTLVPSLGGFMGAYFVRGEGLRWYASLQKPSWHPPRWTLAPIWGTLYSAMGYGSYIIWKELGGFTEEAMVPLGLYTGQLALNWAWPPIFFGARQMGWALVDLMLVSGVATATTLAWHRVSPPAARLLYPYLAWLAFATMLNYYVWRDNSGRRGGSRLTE

`COCCN(CCOC)C(=O)C1Sc2ccccc2-c2[nH]c3ccccc3c21` (stereo not drawn) [Compound 15] showed an IC50 of 4.98 nM.
`CCCN(CCC)C(=O)C1c2c([nH]c3ccccc23)-c2ccccc2S1(=O)=O` (stereo not drawn) [Compound 21, N,N-dipropyl-6,11-dihydro-5-thia-11-aza-benzo[a]fluoren-6-carboxamide 5,5-dioxide] gave an IC50 of 1.12 nM.
Compound `CCCCCCN(CCCCCC)C(=O)C1Cc2ccccc2-c2[nH]c3ccccc3c21` (stereo not drawn) [Compound 23] has an IC50 of 1.35 nM.
With `CCCCCCN(CCCCCC)C(=O)C1Sc2ccccc2-c2[nH]c3ccc(F)cc3c21` (stereo not drawn) [Compound 09] the IC50 was 13.8 nM.
With `CCCCCCN(CCCCCC)C(=O)C1Sc2ccccc2-c2[nH]c3c(F)cc(F)cc3c21` (stereo not drawn) [Compound 12] the IC50 was 22.1 nM.
In the case of `CCCCCCN(CCCCCC)C(=O)C1Cc2ccccc2-c2nc3ccccc3n21` (stereo not drawn) [Compound 26, N,N-dihexyl-5,6-dihydro-benzo[4,5]imidazo[2,1-a]isoquinoline-6-carboxamide], the IC50 is reported as 42.3 nM.
`CCCNC(=O)C1Sc2ccccc2-c2[nH]c3ccccc3c21` (stereo not drawn) [Compound 02] gave an IC50 of 55.9 nM.
For `CCCCCCN(CCCCCC)C(=O)C1Sc2ccccc2-c2[nH]c3ccccc3c21` (single isomer, unassigned; (-)) [Compound 07, (-)-N,N-Dihexyl-6,11-dihydro-5-thia-11-aza-benzo[a]fluoren-6-carboxamide], the IC50 was 42.3 nM.
`CCCCCCN(CCCCCC)C(=O)C1Sc2ccccc2-c2c1c1ccccc1n2C` (stereo not drawn) [Compound 16, N,N-Dihexyl-6,11-dihydro-11-methyl-5-thia-11-aza-benzo[a]fluoren-6-carboxamide] was tested, and the IC50 was 1.35 nM.
Compound `CCCCCCN(CCCCCC)C(=O)C1c2c([nH]c3ccccc23)-c2ccccc2N1C=O` (stereo not drawn) [Compound 27] has an IC50 of 35.1 nM.
Work on `CCCCCCN(CCCCCC)C(=O)C1c2c([nH]c3ccccc23)-c2ccccc2S1(=O)=O` (stereo not drawn) [Compound 22] yielded an IC50 of 1.23 nM.
`CCCCCCN(CCCCCC)C(=O)C1Sc2ccccc2-c2[nH]c3ccc(C)cc3c21` (stereo not drawn) [Compound 11] was tested, and the IC50 was 13.9 nM.
`CCCCCCN(CCCCCC)C(=O)C1Sc2ccccc2-c2[nH]c3ccccc3c21` (single isomer, unassigned; (+)) [Compound 08, (+)-N,N-Dihexyl-6,11-dihydro-5-thia-11-aza-benzo[a]fluoren-6-carboxamide] gave an IC50 of 2.15 nM.
Compound `CCN(CC)C(=O)C1Sc2ccccc2-c2[nH]c3ccccc3c21` (stereo not drawn) [Compound 04] has an IC50 of 0.443 nM.
Work on `CCCCCCN(CCCCCC)C(=O)C1Sc2ccccc2-c2[nH]c3ccccc3c21` (racemic) [Compound 06, N,N-Dihexyl-6,11-dihydro-5-thia-11-aza-benzo[a]fluoren-6-carboxamide] yielded an IC50 of 3.76 nM.
For `CCCN(CCC)C(=O)C1Sc2ccccc2-c2[nH]c3ccccc3c21` (stereo not drawn) [Compound 05, N,N-dipropyl-6,11-dihydro-5-thia-11-aza-benzo[a]fluoren-6-carboxamide], the IC50 was 0.368 nM.
In the case of `CN(C)C(=O)C1Sc2ccccc2-c2[nH]c3ccccc3c21` (stereo not drawn) [Compound 03], the IC50 is reported as 38.5 nM.
`CCCN(CCC)C(=O)C1Cc2ccccc2-c2nc3ccccc3n21` (stereo not drawn) [Compound 25] showed an IC50 of 73.9 nM.
`CCCCCCN(CCOCCC)C(=O)C1Sc2ccccc2-c2[nH]c3ccccc3c21` (stereo not drawn) [Compound 14] was tested, and the IC50 was 1.35 nM.
In the case of `CCCCCCN(CCCCCC)C(=O)C1c2c([nH]c3ccccc23)-c2ccccc2N1C(C)=O` (stereo not drawn) [Compound 28], the IC50 is reported as 12.6 nM.
Compound `CCCCCCN(CCCCCC)C(=O)C1Sc2ccccc2-c2[nH]c3ccc(Cl)cc3c21` (stereo not drawn) [Compound 10] has an IC50 of 20.1 nM.
